# From US20050282743A1, “Molecular interactions in cells” (Arbor Vita Corporation, priority 2001, published 2005)
# Ends that are not written are not given here. Peptide text beside a SMILES is read from it. * marks the point of attachment. Biotin = O=C1N[C@H]2[C@H](CS[C@H]2CCCCC(=O)*)N1
# What was measured:
# Type in all cases: binding
# [1] = target: T1, PDZ protein (GST-PDZ fusion) (Homo sapiens, UniProt Q9BXL6); test: G' assay (10 uM PL peptide), results of TABLE 7 and TABLE 12; details: PDZ CARD14, PDZ Domain 1
# T1 construct: made in house; host or cells: E. coli (DH5alpha, BL21 or JM109)
# T1 sequence (Q9BXL6 1-1004): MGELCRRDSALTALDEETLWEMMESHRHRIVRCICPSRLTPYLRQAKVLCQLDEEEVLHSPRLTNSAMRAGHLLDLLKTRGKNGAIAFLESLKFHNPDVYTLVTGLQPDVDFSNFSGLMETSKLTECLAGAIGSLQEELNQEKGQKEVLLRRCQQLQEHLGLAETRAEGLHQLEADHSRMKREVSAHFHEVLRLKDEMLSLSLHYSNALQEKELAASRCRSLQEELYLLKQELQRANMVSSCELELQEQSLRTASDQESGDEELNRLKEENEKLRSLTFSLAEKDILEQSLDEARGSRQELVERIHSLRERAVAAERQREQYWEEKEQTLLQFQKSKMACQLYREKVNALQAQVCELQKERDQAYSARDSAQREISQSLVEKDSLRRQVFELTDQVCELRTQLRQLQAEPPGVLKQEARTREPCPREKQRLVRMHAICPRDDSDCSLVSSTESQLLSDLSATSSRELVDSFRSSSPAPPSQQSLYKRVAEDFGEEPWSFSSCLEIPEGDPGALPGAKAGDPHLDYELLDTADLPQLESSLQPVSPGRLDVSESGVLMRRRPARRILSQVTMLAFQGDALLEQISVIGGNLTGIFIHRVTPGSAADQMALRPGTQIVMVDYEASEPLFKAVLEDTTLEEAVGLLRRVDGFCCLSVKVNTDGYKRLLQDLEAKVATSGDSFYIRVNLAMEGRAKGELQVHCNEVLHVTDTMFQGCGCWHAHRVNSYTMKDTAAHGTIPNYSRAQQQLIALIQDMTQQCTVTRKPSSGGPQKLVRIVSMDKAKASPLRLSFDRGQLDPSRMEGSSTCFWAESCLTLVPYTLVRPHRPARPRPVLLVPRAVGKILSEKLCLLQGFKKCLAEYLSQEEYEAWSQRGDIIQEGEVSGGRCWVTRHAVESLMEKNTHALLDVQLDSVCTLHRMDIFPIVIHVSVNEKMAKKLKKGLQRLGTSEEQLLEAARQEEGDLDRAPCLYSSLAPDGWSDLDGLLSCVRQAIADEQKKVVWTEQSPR
# Procedure, shortened: (§1)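 Biotinylated PL peptides at 10 uM (vs 20 uM in G^0 assay) bound to GST-PDZ fusions; PDZ protein at 5 ug/ml unless another concentration listed. Bound peptide read as A450 nm, classified 0–5 (0 = A450 0; 5 = A450 >4 repeated).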
# TIP1 (PDZ Domain 1) = target: T2, TIP1 (PDZ Domain 1) (Homo sapiens, UniProt O14907); test: G' assay and Kd titration, TABLE 12; details: A450 nm class of biotinylated PL peptide bound; 0 in conc columns = peptide 10 uM, protein 5 ug/ml
# T2 construct: made in house; host or cells: E. coli (DH5alpha, BL21 or JM109)
# T2 sequence (O14907 14-116): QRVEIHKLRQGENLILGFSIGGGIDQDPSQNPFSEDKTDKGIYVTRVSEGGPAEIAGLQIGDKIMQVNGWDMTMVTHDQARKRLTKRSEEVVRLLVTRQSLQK
# Protocol: The third column labeled “Peptide Optimal Concentration” in the tables is a number reflective of the binding interaction between the PL protein and PDZ protein. […] The column labeled “Protein Optimal Concentration” refers to the protein concentration used to assay PL interaction (in ug/ml); a ‘0’ is indicative of 5 ug/ml protein concentration; any other value represents the concentration (in ug/ml) used to determine the dissociation constant for a given interaction.
# Finally, the seventh column labeled “Classification” is another measure of the level of binding. In particular, it provides an absorbance value at 450 nm which indicates the amount of PL peptide bound to the PDZ protein. […]
# For convenience, the assay conditions described in this section are referred to as the “G′ assay” and the “G″ assay,” with the specific conditions described in the preceding section on G assays being referred to as the “G^0 assay.” The “G′ assay” is identical to the “G^0 assay” except at step (2) the peptide concentration is 10 uM instead of 20 uM. […] Correspondingly, it slightly increases the certainty that detected interactions are of sufficient affinity and half-life to be of biological importance and useful therapeutic targets.
# [2] = target: T3, PDZ protein (GST-PDZ fusion) (Homo sapiens, UniProt Q9Y6N9); test: G' assay (10 uM PL peptide), results of TABLE 7 and TABLE 12; details: PDZ PDZ-73, PDZ Domain 2
# T3 construct: made in house; host or cells: E. coli (DH5alpha, BL21 or JM109)
# T3 sequence (Q9Y6N9 whole entry, the tested form may be a part): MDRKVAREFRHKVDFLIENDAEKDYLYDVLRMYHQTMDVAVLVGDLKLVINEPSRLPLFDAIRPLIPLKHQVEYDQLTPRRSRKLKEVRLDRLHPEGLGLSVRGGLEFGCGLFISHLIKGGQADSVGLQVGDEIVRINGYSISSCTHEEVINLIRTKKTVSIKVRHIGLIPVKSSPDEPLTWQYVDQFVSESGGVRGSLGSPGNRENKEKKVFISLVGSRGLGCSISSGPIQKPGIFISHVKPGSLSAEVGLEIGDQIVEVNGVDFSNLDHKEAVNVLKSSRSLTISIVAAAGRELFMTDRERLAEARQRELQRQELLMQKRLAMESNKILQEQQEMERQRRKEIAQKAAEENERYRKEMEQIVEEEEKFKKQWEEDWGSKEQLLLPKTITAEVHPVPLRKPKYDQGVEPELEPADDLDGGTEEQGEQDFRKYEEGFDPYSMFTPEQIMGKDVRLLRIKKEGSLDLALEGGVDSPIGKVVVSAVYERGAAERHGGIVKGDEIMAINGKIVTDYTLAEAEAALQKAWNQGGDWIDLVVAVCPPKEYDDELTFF
# Procedure, shortened: as §1
# [3] = target: T4, PDZ protein (GST-PDZ fusion) (Homo sapiens, UniProt P53667); test: as above; details: PDZ LIMK1, PDZ Domain 1
# T4 construct: made in house; host or cells: E. coli (DH5alpha, BL21 or JM109)
# T4 sequence (P53667 whole entry, the tested form may be a part): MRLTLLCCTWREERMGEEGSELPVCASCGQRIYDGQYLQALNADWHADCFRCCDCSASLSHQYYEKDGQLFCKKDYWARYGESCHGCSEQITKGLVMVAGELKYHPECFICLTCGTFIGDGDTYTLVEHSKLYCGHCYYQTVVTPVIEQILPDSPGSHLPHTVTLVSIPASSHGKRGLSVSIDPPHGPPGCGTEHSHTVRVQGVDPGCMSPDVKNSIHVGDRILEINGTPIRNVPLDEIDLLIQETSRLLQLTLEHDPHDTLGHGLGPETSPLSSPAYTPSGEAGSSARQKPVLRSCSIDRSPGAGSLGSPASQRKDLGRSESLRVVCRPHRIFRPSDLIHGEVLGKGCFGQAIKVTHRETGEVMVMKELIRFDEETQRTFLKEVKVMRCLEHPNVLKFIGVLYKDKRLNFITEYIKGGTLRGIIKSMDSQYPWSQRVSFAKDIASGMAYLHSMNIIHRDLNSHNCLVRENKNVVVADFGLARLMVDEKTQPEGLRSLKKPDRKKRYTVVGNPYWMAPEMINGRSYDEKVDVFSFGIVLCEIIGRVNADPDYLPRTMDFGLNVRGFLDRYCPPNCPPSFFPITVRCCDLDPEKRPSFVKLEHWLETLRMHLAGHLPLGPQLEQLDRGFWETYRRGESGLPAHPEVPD
# Procedure, shortened: as §1
# [4] = target: T5, PDZ protein (GST-PDZ fusion) (Homo sapiens, UniProt Q9NRD5); test: as above; details: PDZ PICK1, PDZ Domain 1
# T5 construct: made in house; host or cells: E. coli (DH5alpha, BL21 or JM109)
# T5 sequence (Q9NRD5 whole entry, the tested form may be a part): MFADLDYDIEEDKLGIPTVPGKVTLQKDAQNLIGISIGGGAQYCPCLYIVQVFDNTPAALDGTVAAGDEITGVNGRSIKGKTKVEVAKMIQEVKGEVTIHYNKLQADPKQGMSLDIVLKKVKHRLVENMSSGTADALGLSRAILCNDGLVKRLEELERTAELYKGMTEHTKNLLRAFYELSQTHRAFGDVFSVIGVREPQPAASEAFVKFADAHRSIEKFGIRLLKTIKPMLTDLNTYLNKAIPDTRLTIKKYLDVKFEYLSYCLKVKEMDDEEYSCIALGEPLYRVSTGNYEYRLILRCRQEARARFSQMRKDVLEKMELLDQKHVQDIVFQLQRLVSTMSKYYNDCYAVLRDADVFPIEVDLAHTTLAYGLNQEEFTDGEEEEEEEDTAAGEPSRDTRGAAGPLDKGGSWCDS
# Procedure, shortened: as §1
molecule,measurement,setting,value
A2AC_HUMAN (Modified) (Biotin-DFRPSFKHILFRRARRGFRQ; not fully specified),Classification,[1],5 (A450 nm of 4 more than 2× repeated)
CC(C)C[C@H](NC(=O)[C@H](C)NC(=O)[C@@H](NC(=O)[C@@H](NC(=O)[C@H](Cc1c[nH]cn1)NC(=O)[C@H](CC(C)C)NC(=O)CNC(=O)[C@H](CCC(N)=O)NC(=O)CNC(=O)CNC(=O)[C@H](C)NC(=O)[C@H](C)NC(=O)[C@H](CCCNC(=N)N)NC(=O)[C@H](C)NC(=O)[C@H](CO)NC(=O)[C@H](CC(=O)O)NC(=O)[C@H](CC(=O)O)NC(=O)[C@H](Cc1c[nH]c2ccccc12)NC(=O)[C@H](C)NC(=O)CCCC[C@@H]1SC[C@@H]2NC(=O)N[C@@H]21)C(C)C)[C@@H](C)O)C(=O)O [LPAP] (Biotin-AWDDSARAAGGQGLHVTAL-OH; C-terminus assumed),Classification,TIP1 (PDZ Domain 1),5 (A450 nm of 4 more than 2× repeated)
CSCC[C@H](NC(=O)[C@H](C)NC(=O)[C@H](CCCNC(=N)N)NC(=O)CNC(=O)[C@@H](NC(=O)[C@H](Cc1c[nH]c2ccccc12)NC(=O)[C@H](CCCNC(=N)N)NC(=O)CNC(=O)CCCC[C@@H]1SC[C@@H]2NC(=O)N[C@@H]21)[C@@H](C)O)C(=O)N[C@@H](CO)C(=O)N[C@@H](C)C(=O)N[C@@H](Cc1c[nH]c2ccccc12)C(=O)N[C@@H](CCCCN)C(=O)N1CCC[C@H]1C(=O)N[C@H](C(=O)N[C@@H](CCCNC(=N)N)C(=O)N[C@@H](CCCNC(=N)N)C(=O)N[C@@H](CCC(=O)O)C(=O)N[C@H](C(=O)N[C@@H](CCC(=O)O)C(=O)N[C@H](C(=O)O)C(C)C)[C@@H](C)O)[C@@H](C)O [HPV E6 #35 (modified)] (Biotin-GRWTGRAMSAWKPTRRETEV-OH; C-terminus assumed),Classification,[2]; PL peptide 10 uM,2 (A450 nm 1-2)
same,Classification,[3],1 (A450 nm 0-1)
CC(C)C[C@H](NC(=O)[C@H](Cc1c[nH]c2ccccc12)NC(=O)[C@H](Cc1c[nH]cn1)NC(=O)[C@H](CCCNC(=N)N)NC(=O)[C@H](CC(C)C)NC(=O)[C@@H](NC(=O)[C@H](Cc1ccccc1)NC(=O)[C@H](CCC(N)=O)NC(=O)[C@H](CCCNC(=N)N)NC(=O)[C@@H](NC(=O)[C@H](CCC(=O)O)NC(=O)CNC(=O)[C@H](CCCNC(=N)N)NC(=O)[C@H](CC(=O)O)NC(=O)[C@@H](NC(=O)[C@H](CC(C)C)NC(=O)[C@H](CCC(=O)O)NC(=O)[C@H](CCCNC(=N)N)NC(=O)CCCC[C@@H]1SC[C@@H]2NC(=O)N[C@@H]21)C(C)C)C(C)C)[C@@H](C)O)C(=O)N[C@@H](CCCCN)C(=O)N[C@H](C(=O)O)C(C)C [Dopamine transporter (Na+-dependent)] (Biotin-RELVDRGEVRQFTLRHWLKV-OH; C-terminus assumed),Classification,[4],2 (A450 nm 1-2)
A2AA_HUMAN (modified) (Biotin-HDFRRAFKKILARGDRKRIV; not fully specified),Classification,[1],1 (A450 nm 0-1)
CC[C@H](C)[C@H](NC(=O)CNC(=O)[C@H](CO)NC(=O)[C@H](Cc1ccccc1)NC(=O)[C@@H](NC(=O)[C@H](CS)NC(=O)CNC(=O)CNC(=O)[C@H](C)NC(=O)[C@@H]1CCCN1C(=O)[C@@H](NC(=O)[C@@H]1CCCN1C(=O)CCCC[C@@H]1SC[C@@H]2NC(=O)N[C@@H]21)[C@@H](C)CC)[C@@H](C)O)C(=O)N[C@@H](Cc1ccccc1)C(=O)N1CCC[C@H]1C(=O)N[C@H](C(=O)N[C@@H](CC(C)C)C(=O)N[C@H](C(=O)N[C@@H](CO)C(=O)N1CCC[C@H]1C(=O)N[C@@H](CC(C)C)C(=O)O)[C@@H](C)O)[C@@H](C)O [KIA 1481] (Biotin-PIPAGGCTFSGIFPTLTSPL-OH; C-terminus assumed),Classification,[2],1 (A450 nm 0-1)
CC[C@H](C)[C@H](NC(=O)[C@H](C)NC(=O)[C@H](CC(C)C)NC(=O)[C@H](Cc1c[nH]c2ccccc12)NC(=O)[C@H](Cc1c[nH]cn1)NC(=O)[C@H](CCC(N)=O)NC(=O)[C@H](CC(C)C)NC(=O)[C@H](CCC(N)=O)NC(=O)[C@H](Cc1ccccc1)NC(=O)[C@H](CCC(N)=O)NC(=O)[C@H](CCCNC(=N)N)NC(=O)[C@@H](NC(=O)[C@H](CC(=O)O)NC(=O)[C@H](CCCNC(=N)N)NC(=O)[C@H](CCC(N)=O)NC(=O)[C@H](C)NC(=O)[C@@H](NC(=O)[C@H](CC(C)C)NC(=O)[C@H](Cc1c[nH]cn1)NC(=O)[C@H](Cc1c[nH]cn1)NC(=O)CCCC[C@@H]1SC[C@@H]2NC(=O)N[C@@H]21)C(C)C)[C@@H](C)CC)C(=O)O [noradrenaline transporter] (Biotin-HHLVAQRDIRQFQLQHWLAI-OH; C-terminus assumed),Classification,[4],1 (A450 nm 0-1)
CC[C@H](C)[C@H](NC(=O)[C@H](CCC(N)=O)NC(=O)CCCC[C@@H]1SC[C@@H]2NC(=O)N[C@@H]21)C(=O)N[C@@H](CO)C(=O)N1CCC[C@H]1C(=O)NCC(=O)NCC(=O)N[C@@H](CC(C)C)C(=O)N[C@@H](CCC(=O)O)C(=O)N1CCC[C@H]1C(=O)N1CCC[C@H]1C(=O)N[C@@H](CO)C(=O)N[C@@H](CCC(=O)O)C(=O)N[C@@H](CCCCN)C(=O)N[C@@H](Cc1c[nH]cn1)C(=O)N[C@@H](Cc1ccccc1)C(=O)N[C@@H](CCCNC(=N)N)C(=O)N[C@@H](CCC(=O)O)C(=O)N[C@H](C(=O)N[C@@H](CCC(=O)O)C(=O)N[C@H](C(=O)O)C(C)C)[C@@H](C)O [Tax],Classification,[3],1 (A450 nm 0-1)
same,Classification,TIP1 (PDZ Domain 1),5 (A450 nm of 4 more than 2× repeated)
